tested on: AP-1 induced transcriptional activity; test: Cellular Transrepressional Assay (AP-1 luciferase reporter, PMA-activated A549 cells); format: cell-based; settings: Homo sapiens, A549, 7 h, maximum inhibition, Cellular Transrepression Assay; read-out: AP-1 Max % inh (Cellular Transrepression Assay)
Summary of the method: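 Compounds tested from 0.1 nM to 40 μM during a 7 h PMA (10 ng/ml) stimulation of A549 cells stably transfected with 7× AP-1 sites driving luciferase. Repression expressed as % reduction of PMA-induced luminescence; EC50 by curve fitting.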

SMILES | Emax
Cc1nnc(NC(=O)C(C)(C)[C@H]2c3ccccc3Oc3nc(-c4ccc(C(=O)N5CCC(F)(F)C5)c(F)c4)ccc32)s1 [Example 477] | 44.8%
Cc1nsc(NC(=O)C(C)(C)[C@H]2c3ccccc3Oc3nc(-c4ccc(C(=O)N5CCOCC5)cc4)ccc32)n1 [Example 478] | 41.8%
CN(C)C(=O)c1ccc(-c2ccc3c(n2)Oc2ccccc2C3C2(C(=O)Nc3nncs3)CCC2)cc1 (stereo not drawn) [Example 479] | 44.4%
CN(C)C(=O)c1ccc(-c2ccc3c(n2)Oc2ccccc2C3C2(C(=O)Nc3nncs3)CCCC2)cc1 (stereo not drawn) [Example 484] | 29.8%
CN(C)C(=O)c1ccc(-c2ccc3c(n2)Oc2ccccc2C3C2(C(=O)Nc3ncns3)CCCC2)cc1 (stereo not drawn) [Example 485] | 38.9%
O=C(c1ccc(-c2ccc3c(n2)Oc2ccccc2C3C2(C(=O)Nc3nncs3)CCC2)cc1)N1CCOCC1 (stereo not drawn) [Example 486] | 50.3%
Cc1nnc(NC(=O)C2(C3c4ccccc4Oc4nc(-c5ccc(C(=O)N(C)C)cc5)ccc43)CCC2)s1 (stereo not drawn) [Example 488] | 34.5%
CC(C)(C(=O)Nc1nncs1)C1c2ccccc2Oc2cc(-c3ccc(C(=O)N4CCOCC4)cc3)ncc21 (stereo not drawn) [Example 492] | 28.4%

same assay, conditions: Homo sapiens, A549, Cellular Transrepression Assay

SMILES | EC50
Cc1nnc(NC(=O)C(C)(C)[C@H]2c3ccccc3Oc3nc(-c4ccc(C(=O)N5CCC(F)(F)C5)c(F)c4)ccc32)s1 [Example 477] | 39.8 nM
Cc1nsc(NC(=O)C(C)(C)[C@H]2c3ccccc3Oc3nc(-c4ccc(C(=O)N5CCOCC5)cc4)ccc32)n1 [Example 478] | 16 nM
CN(C)C(=O)c1ccc(-c2ccc3c(n2)Oc2ccccc2C3C2(C(=O)Nc3nncs3)CCC2)cc1 (stereo not drawn) [Example 479] | 47 nM
CN(C)C(=O)c1ccc(-c2ccc3c(n2)Oc2ccccc2C3C2(C(=O)Nc3nncs3)CCCC2)cc1 (stereo not drawn) [Example 484] | 19.3 nM
CN(C)C(=O)c1ccc(-c2ccc3c(n2)Oc2ccccc2C3C2(C(=O)Nc3ncns3)CCCC2)cc1 (stereo not drawn) [Example 485] | 42.4 nM
O=C(c1ccc(-c2ccc3c(n2)Oc2ccccc2C3C2(C(=O)Nc3nncs3)CCC2)cc1)N1CCOCC1 (stereo not drawn) [Example 486] | 15.8 nM
Cc1nnc(NC(=O)C2(C3c4ccccc4Oc4nc(-c5ccc(C(=O)N(C)C)cc5)ccc43)CCC2)s1 (stereo not drawn) [Example 488] | 42.9 nM
CC(C)(C(=O)Nc1nncs1)C1c2ccccc2Oc2cc(-c3ccc(C(=O)N4CCOCC4)cc3)ncc21 (stereo not drawn) [Example 492] | 182 nM

target: T1, human full-length glucocorticoid receptor (Homo sapiens, UniProt P04150); test: Glucocorticoid Receptor Binding Assay (I), fluorescence polarization, Fluormone GS Red; parameters: purified human recombinant full-length glucocorticoid receptor; purchased Invitrogen Part #2893; settings: not given
T1 sequence (P04150 1-777): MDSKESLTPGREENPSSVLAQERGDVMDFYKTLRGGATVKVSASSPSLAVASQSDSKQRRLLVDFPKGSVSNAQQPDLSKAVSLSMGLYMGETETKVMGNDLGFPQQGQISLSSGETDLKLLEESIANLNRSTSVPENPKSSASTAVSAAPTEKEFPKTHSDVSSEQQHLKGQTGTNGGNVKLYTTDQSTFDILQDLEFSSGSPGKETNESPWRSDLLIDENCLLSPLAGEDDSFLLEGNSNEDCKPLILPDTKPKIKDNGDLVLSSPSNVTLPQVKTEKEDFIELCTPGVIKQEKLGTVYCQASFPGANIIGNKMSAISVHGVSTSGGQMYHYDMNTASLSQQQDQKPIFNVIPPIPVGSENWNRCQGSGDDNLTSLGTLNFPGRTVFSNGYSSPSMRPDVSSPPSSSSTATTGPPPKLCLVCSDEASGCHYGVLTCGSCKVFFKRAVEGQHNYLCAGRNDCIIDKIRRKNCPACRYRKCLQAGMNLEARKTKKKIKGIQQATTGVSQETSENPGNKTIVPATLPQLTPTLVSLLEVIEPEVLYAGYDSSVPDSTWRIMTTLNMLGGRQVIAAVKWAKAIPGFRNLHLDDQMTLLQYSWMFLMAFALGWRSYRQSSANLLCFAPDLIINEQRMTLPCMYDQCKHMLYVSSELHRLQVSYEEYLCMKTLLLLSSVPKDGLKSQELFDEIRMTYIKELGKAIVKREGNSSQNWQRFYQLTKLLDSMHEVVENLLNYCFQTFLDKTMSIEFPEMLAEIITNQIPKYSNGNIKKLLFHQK
Procedure: Glucocorticoid Receptor Binding Assay (I)^a
Briefly, purified human recombinant full-length glucocorticoid receptor (2 nM) was mixed with fluorescently labeled glucocorticoid (1 nM Fluormone GS Red) in the presence or absence of test compound. After two hour incubation at room temperature in the dark, the fluorescence polarization (FP) of the samples was measured. […] Test compounds were analyzed in the concentration range from 8.5E-05 μM to 5 μM.

SMILES | Ki
CC(C)(C(=O)Nc1nncs1)[C@H]1c2ccccc2Oc2nc(-c3ccc(C(=O)O)cc3)ccc21 [Example 174] | 10.2 nM
CC(C)(C(=O)Nc1nncs1)[C@H]1c2ccccc2Oc2nc(-c3ccc(C(N)=O)cc3)ccc21 [Example 215] | 2.5 nM
CNC(=O)c1ccc(-c2ccc3c(n2)Oc2ccccc2[C@@H]3C(C)(C)C(=O)Nc2nncs2)cc1F [Example 253] | 6.28 nM

same assay, conditions: GR Binding Assay (I); read-out: GR (Ki, nM) (GR Binding Assay (I))

SMILES | Ki
CC(C(=O)Nc1nncs1)C1c2ccccc2Oc2nc(-c3ccc(C(=O)N(C)C)cc3)ccc21 (mixture of isomers) [Example 482] | 45 nM
O=C(c1ccc(-c2ccc3c(n2)Oc2ccccc2C3C2(C(=O)Nc3nncs3)CCC2)cc1)N1CCOCC1 (single isomer, unassigned) [Example 487] | > 1150 nM
CC(C)(C(=O)Nc1nncs1)C1c2cccnc2Oc2c(F)cccc21 (stereo not drawn) [Example 72] | > 1150 nM
CC(C)(C(=O)Nc1nncs1)C1c2ccccc2Oc2cc(-c3ccc(C(=O)O)cn3)ccc21 (stereo not drawn) [Example 101] | 19.8 nM
CC(C)(C(=O)Nc1nncs1)C1c2ccccc2Oc2cc(-c3ccc(C(=O)O)s3)ccc21 (stereo not drawn) [Example 103] | 6.06 nM
CN(C)C(=O)c1ccc(-c2ccc3c(c2)Oc2ccccc2C3C(C)(C)C(=O)Nc2nncs2)s1 (stereo not drawn) [Example 104] | 4.5 nM
CC(C)(C(=O)Nc1nncs1)C1c2ccccc2Oc2cc(-c3ncc(C(=O)O)cn3)ccc21 (stereo not drawn) [Example 108] | 13.6 nM
CC(C)(C(=O)Nc1nncs1)C1c2ccccc2Oc2cc(C(N)=O)ccc21 (stereo not drawn) [Example 113] | 62.6 nM
CC(C)(C(=O)Nc1nncs1)C1c2ccccc2Oc2cc(C(=O)O)ccc21 (stereo not drawn) [Example 114] | 49.9 nM
CC(C)(C(=O)Nc1nncs1)C1c2ccccc2Oc2cc(C(=O)N3CCOCC3)ccc21 (stereo not drawn) [Example 116] | 346 nM
CNC(=O)c1ccc2c(c1)Oc1ccccc1C2C(C)(C)C(=O)Nc1nncs1 (stereo not drawn) [Example 117] | 123 nM
CC(C)(C(=O)Nc1nncs1)C1c2ccccc2Oc2cc(C(=O)NCc3ccccc3)ccc21 (stereo not drawn) [Example 118] | 76.6 nM
CC(C)(C(=O)Nc1nncs1)C1c2ccccc2Oc2cc(NC(=O)NCc3ccccc3)ccc21 (stereo not drawn) [Example 122] | 80 nM
CC(C)(C(=O)Nc1nncs1)C1c2ccccc2Oc2cc(NC(=O)Nc3nccs3)ccc21 (stereo not drawn) [Example 123] | 17.8 nM
CC(C)(C(=O)Nc1nncs1)C1c2ccccc2Oc2cc(NC(=O)NC3CC3)ccc21 (stereo not drawn) [Example 124] | 65.1 nM
CN(C)C(=O)c1ccc(-c2ccc3c(n2)Oc2ccccc2[C@H]3C(C)(C)C(=O)Nc2nncs2)cc1 [Example 168] | 486 nM
CC(C)(C(=O)Nc1nncs1)[C@H]1c2ccccc2Oc2nc(-c3ccc(C(=O)O)c(F)c3)ccc21 [Example 213] | 7.95 nM
CC(C)(C(=O)Nc1nncs1)[C@H]1c2ccccc2Oc2nc(-c3ccc(S(C)(=O)=O)cc3)ccc21 [Example 214] | 1.37 nM
CC(C)(C(=O)Nc1nncs1)[C@H]1c2ccccc2Oc2nc(-c3cc4ccccc4o3)ccc21 [Example 216] | 4.14 nM
COc1ccc(-c2ccc3c(n2)Oc2ccccc2[C@@H]3C(C)(C)C(=O)Nc2nncs2)cn1 [Example 218] | 1.24 nM
Cc1cc(-c2ccc3c(n2)Oc2ccccc2[C@@H]3C(C)(C)C(=O)Nc2nncs2)ccc1OC(C)C [Example 224] | 8.06 nM
CN(C)S(=O)(=O)c1ccc(-c2ccc3c(n2)Oc2ccccc2[C@@H]3C(C)(C)C(=O)Nc2nncs2)cc1 [Example 232] | 4.57 nM

SMILES | Ki
CC(C)(C(=O)Nc1nncs1)[C@H]1c2ccccc2Oc2nc(-c3ccc(S(=O)(=O)N4CCOCC4)cc3)ccc21 [Example 233] | 11.3 nM
CC(C)(C(=O)Nc1nncs1)[C@H]1c2ccccc2Oc2nc(-c3ccc(S(=O)(=O)NC4CC4)cc3)ccc21 [Example 235] | 4.85 nM
CC(C)NS(=O)(=O)c1ccc(-c2ccc3c(n2)Oc2ccccc2[C@@H]3C(C)(C)C(=O)Nc2nncs2)cc1 [Example 236] | 9.44 nM
Cc1nnc(-c2ccc(-c3ccc4c(n3)Oc3ccccc3[C@@H]4C(C)(C)C(=O)Nc3nncs3)cc2)o1 [Example 237] | 6.04 nM
CC(C)(C(=O)Nc1nncs1)[C@H]1c2ccccc2Oc2nc(-c3ccc(OC4CCOCC4)c(F)c3)ccc21 [Example 242] | 412 nM
CC(C)(C(=O)Nc1nncs1)[C@H]1c2ccccc2Oc2nc(-c3ccc(OC4CCCCC4)c(F)c3)ccc21 [Example 243] | > 1150 nM
CC(C)(C(=O)Nc1nncs1)[C@H]1c2ccccc2Oc2nc(-c3ccc(OC4CCCC4)c(F)c3)ccc21 [Example 244] | > 1150 nM
CN(C)C(=O)c1ccc(-c2ccc3c(n2)Oc2ccccc2[C@@H]3C(C)(C)C(=O)Nc2nccs2)cc1 [Example 245] | 1.01 nM
CN(Cc1ccccc1)C(=O)c1ccc(-c2ccc3c(n2)Oc2ccccc2[C@@H]3C(C)(C)C(=O)Nc2nncs2)cc1 [Example 255] | 16.1 nM
CN1CCN(C(=O)c2ccc(-c3ccc4c(n3)Oc3ccccc3[C@@H]4C(C)(C)C(=O)Nc3nncs3)cc2)CC1 [Example 256] | 180 nM
CCN(CC)C(=O)c1ccc(-c2ccc3c(n2)Oc2ccccc2[C@@H]3C(C)(C)C(=O)Nc2nncs2)cc1OC [Example 262] | 18.2 nM
COc1cc(-c2ccc3c(n2)Oc2ccccc2[C@@H]3C(C)(C)C(=O)Nc2nncs2)ccc1C(=O)N1CCCCC1 [Example 265] | 126 nM
CC1CCN(C(=O)c2ccc(-c3ccc4c(n3)Oc3ccccc3[C@@H]4C(C)(C)C(=O)Nc3nncs3)cc2)CC1 [Example 268] | 9.45 nM
CC(C)(C(=O)Nc1nncs1)[C@H]1c2ccccc2Oc2nc(-c3ccc(C(=O)N4CCC(O)CC4)cc3)ccc21 [Example 269] | 14.7 nM
CC1(C)CCCN(C(=O)c2ccc(-c3ccc4c(n3)Oc3ccccc3[C@@H]4C(C)(C)C(=O)Nc3nncs3)cc2)C1 [Example 271] | 218 nM
COC[C@@H]1CCCN1C(=O)c1ccc(-c2ccc3c(n2)Oc2ccccc2[C@@H]3C(C)(C)C(=O)Nc2nncs2)cc1 [Example 272] | 12.6 nM
CC(C)(C(=O)Nc1nncs1)[C@H]1c2ccccc2Oc2nc(-c3ccc(C(=O)N4CCC(Cc5ccccc5)CC4)cc3)ccc21 [Example 278] | 30.5 nM
CC(C)(C(=O)Nc1nncs1)[C@H]1c2ccccc2Oc2nc(-c3ccc(C(=O)N4CCC(CO)CC4)cc3)ccc21 [Example 279] | 20.8 nM
CC(C)(C(=O)Nc1nncs1)[C@H]1c2ccccc2Oc2nc(-c3ccc(C(=O)N4CCC(c5ccccc5)CC4)cc3)ccc21 [Example 281] | 33.5 nM
CC(C)(C(=O)Nc1nncs1)[C@H]1c2ccccc2Oc2nc(-c3ccc(C(=O)N4CCC[C@H]4C(N)=O)cc3)ccc21 [Example 282] | 13.4 nM
CC(C)(C(=O)Nc1nncs1)[C@H]1c2ccccc2Oc2nc(-c3ccc(C(=O)N4CCC[C@@H](O)C4)cc3)ccc21 [Example 284] | 17.4 nM
CC(C)(C(=O)Nc1nncs1)[C@H]1c2ccccc2Oc2nc(-c3ccc(C(=O)N4CCCC(F)(F)C4)cc3)ccc21 [Example 287] | 16.8 nM

Source: patent US8034940B2, “Modulators of glucocorticoid receptor, AP-1, and/or NF-κB activity and use thereof” (Bristol-Myers Squibb Company, priority 2006, dated 2011)
